Assay results published in patent US9994536B2, “Compounds and methods of treating neurological disorders” (TORREY PINES INSTITUTE FOR MOLECULAR STUDIES, priority 2014, dated 2018).

Legend:
[1] = system: sAPPα released from 7WD10 cells (CHO cells stably expressing APP751); experiment: AlphaLISA sAPPα release assay (pilot HTS); assay type: cell-based; conditions: 5 μM, 7WD10 cells, 24 h
Method: (1). The pilot screen was performed using five 384 well plates. […] FDA approved oncology set was screened at 10 μM final assay concentration, while thiazole derivatives were screened at 5 μM. Seven hits from thiazole derivatives were identified using Ave+3SD rule (45) as a nominal cutoff for hit determination (FIG. 1.1 (bottom)). The hits represented a novel piperazine thiazole chemotype (FIG. 1.2).
Pilot screen of AlphaLISA sAPPα release assay. 8 μL of assay media (DMEM supplemented with 10% FBS and 1× Penicillin/Streptomycin) containing 20,000 cells were added to all wells of the assay plate, except column 1 where only media was added. Plates were incubated for 4 h at 37° C., 5% CO2, 95% RH after which 80 nL of test compounds in DMSO or DMSO alone were added to respective wells using a pin tool device (VP Scientific, San Diego). After 24 h of incubation at 37° C., 5% CO2, 95% RH, sAPPα AlphaLISA beads were added in 10 μL of buffer, equilibrated for 1 h, and AlphaLISA signal was measured using a Biotek H4 Synergy microplate reader (Biotek Inc). Three parameters were calculated on a per-plate basis: (a) the signal-to-background ratio (S/B); (b) the coefficient for variation [CV; CV=(standard deviation/mean)×100)] for all compound test wells; and (c) the Z′-factor [31]. Nominally active compounds from the pilot screen were determined using mean plus 3 times the standard deviation (Mean+3SD) was used as the cut-off.
In the absence of known pharmacological agents capable of inducing an increase of sAPPα release, we tested a small molecule (FIG. 2.4A insert, compound 1 in [2]) shown to decrease Aβ release. It was shown that decrease of Aβ release could be accompanied by the increase of soluble APPα, which has a neuroprotective effect. Compound 1 was tested using 20,000 cells/well in the range of 1.2-100 μM using 3-fold serial dilutions and 24 h incubation as an assay endpoint. Increase of sAPPα release was observed only in wells where 100 μM of compound 1 was added either with or without FBS (FIG. 2.4A). Viability of cells was also tested in the presence of 1.2-100 μM of compound 1 to ascertain that the increase of sAPPα release is not due to excessive cell death. Consistent with the above described results, cells were less viable in the absence of FBS. In the presence of 1.2-33 μM of compound 1, cells were approximately 10% less viable than untreated control either with or without FBS (FIG. 2.4B).
To evaluate the ability of the assay to identify compounds that increase the release of sAPPα a pilot screen was conducted using FDA approved oncology set (n=101) and TPIMS heterocycles library (n=700). The pilot screen was performed using five 384 well plates. […]

[2] = system: human primary neurons; experiment: Neurite outgrowth, Sholl analysis of dendritic intersections; assay type: cell-based
From the text: (4). The most important property of THPI-244 is its ability to increase neurite outgrowth and dendritic intersections in human primary neurons. Since both TrkA and sAPPα promote neuron growth and provide trophic support, we tested whether treatment of human primary neurons with THPI-244 induces neurite outgrowth. […] Considering an enormous potential for such an excellent results in human neurons, we did systematic analysis by also treating neurons in the presence of TrkA inhibitor to verify if the increased neurite outgrowth is mediated by TrkA receptor. Sholl analysis using ImageJ software of individual neurons (at least 30 per group) immunostained for MAP2 antibody confirmed our initial findings. […] This confirmed that THPI-244 increases TrkA protein levels which has vital role in regulating neuritic outgrowth.

[3] = system: sAPPα; experiment: sAPPα ELISA, NT2 cells stably expressing APP751; assay type: cell-based, human; conditions: 24 h
Method: (5). To confirm the effect of THPI-244 on sAPPα levels in a neuronal cell line and by a tertiary assay, we exposed human Neuron-committed Teratocarcinoma cell line (NT2) stably expressing human APP751 to different concentrations of THPI-244 for 24 h and compared with that of Bryostatin, a classical activator of PKC known to stimulate sAPPα release. […] Levels of sAPPα were measured by ELISA using commercially available kit (cat #27734, IBL-America, Minneapolis, Minn., USA). […] Similar biphasic effect of Bryostatin was confirmed for Aβ42 also, measured again in NT2 stable cells by ELISA (cat #KHB3441, Life Technologies, Grand Island, N.Y., USA). Consistent with sAPPα, THPI-244 decreased Aβ42 levels dose-dependently starting from 50 nM (28%, p<0.05) to 2000 nM (64%, p<0.001) (n=4 independent experiments) (FIG. 1.7). Thus THPI-244 increased non-amyloidogenic processing of APP in NT2 cells.

[4] = system: sAPPα; experiment: sAPPα ELISA, fibroblasts derived from AD patients; assay type: cell-based, human; conditions: 24 h
Method: (1). […] Therefore, we first used fibroblasts derived from AD patients (AG06263C, Coriell Cell repository, supported by NINDS/NIH) and exposed to THPI-244 for 24 h and measured sAPPα release by ELISA as done above for NT2 cells. […] We also confirmed dose-dependent effect of THPI-244 on sAPPα levels in human primary neurons transiently transfected with APP751 with Swedish mutation which is trafficked differently from WT APP and releases more sAPPα. Human neurons were grown on specially coated glass coverslips (cat #GG-18-PDL, NeuVitro, Germany). We could reproducibly achieve nearly 30% transfection efficiency using a nanoparticle based transfection reagent called Neuromag (cat #NM150299, OZ Biosciences, France).

SMILES: O=C(Cc1ccccc1)N[C@H](CNc1nc(CN2CCN(C(=O)Cc3ccccc3)CC2)cs1)c1ccccc1 [THPI-244]
- increase of Alpha signal (sAPPα release) [1]: ~2 fold
- number of dendritic intersections ([2]; treated 2DIV to 6DIV): highly significant increase
- number of dendritic intersections ([2]; with TrkA inhibitor, 2DIV to 6DIV): almost completely prevented the increased intersections
- lowest concentration with significant increase of sAPPα [3]: 50 nM
- lowest concentration with significant increase of sAPPα [4]: 50 nM
